Laboratory results published in the supplement of paper PMC10307832.

How the values were obtained:
Assay in all cases: relative viability (nuclei count vs DMSO), 5 days (fraction); higher = more cells survive
Dactolisib + Palbociclib = compound: Cn1c(=O)n(-c2ccc(C(C)(C)C#N)cc2)c2c3cc(-c4cnc5ccccc5c4)ccc3ncc21 [Dactolisib] + CC(=O)c1c(C)c2cnc(Nc3ccc(N4CCNCC4)cn3)nc2n(C2CCCC2)c1=O [Palbociclib] (partner 0.5 µM)
In short: (§1)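 Five library-drug doses in √10 steps were combined with a fixed anchor-drug dose, or a single drug was given alone, by pin tool to lung cancer cell lines in 1536-well plates the day after seeding. Nuclei were stained and counted after 5 days. Relative viability is the nuclei count in treated wells over that in vehicle wells, taken as the median of duplicate plates.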

Dactolisib + Dasatinib = compound: Cn1c(=O)n(-c2ccc(C(C)(C)C#N)cc2)c2c3cc(-c4cnc5ccccc5c4)ccc3ncc21 [Dactolisib] + Cc1nc(Nc2ncc(C(=O)Nc3c(C)cccc3Cl)s2)cc(N2CCN(CCO)CC2)n1 [Dasatinib] (partner 0.075 µM)
In short: as §1

AZ505 + Bortezomib = compound: C1CCC(CC1)N(CCNCCC2=C3C(=C(C=C2)O)NC(=O)CO3)C(=O)CCNCCC4=CC(=C(C=C4)Cl)Cl [AZ505] + CC(C)C[C@H](NC(=O)[C@H](Cc1ccccc1)NC(=O)c1cnccn1)B(O)O [Bortezomib] (partner 0.002 µM)
In short: as §1

AZ505 + Linsitinib = compound: C1CCC(CC1)N(CCNCCC2=C3C(=C(C=C2)O)NC(=O)CO3)C(=O)CCNCCC4=CC(=C(C=C4)Cl)Cl [AZ505] + C[C@]1(O)C[C@@H](c2nc(-c3ccc4ccc(-c5ccccc5)nc4c3)c3c(N)nccn32)C1 [Linsitinib] (partner 1 µM)
In short: as §1

Cell Line | relative viability (Dactolisib + Palbociclib; first compound 0.002 µM) | relative viability (Dactolisib + Palbociclib; first compound 0.006325 µM) | relative viability (Dactolisib + Palbociclib; first compound 0.02 µM) | relative viability (Dactolisib + Palbociclib; first compound 0.06325 µM) | relative viability (Dactolisib + Palbociclib; first compound 0.2 µM) | relative viability (Dactolisib + Dasatinib; first compound 0.002 µM) | relative viability (Dactolisib + Dasatinib; first compound 0.006325 µM) | relative viability (Dactolisib + Dasatinib; first compound 0.02 µM) | relative viability (Dactolisib + Dasatinib; first compound 0.06325 µM) | relative viability (Dactolisib + Dasatinib; first compound 0.2 µM) | relative viability (AZ505 + Bortezomib; first compound 0.08 µM) | relative viability (AZ505 + Bortezomib; first compound 0.253 µM) | relative viability (AZ505 + Bortezomib; first compound 0.8 µM) | relative viability (AZ505 + Bortezomib; first compound 2.53 µM) | relative viability (AZ505 + Bortezomib; first compound 8 µM) | relative viability (AZ505 + Linsitinib; first compound 0.08 µM) | relative viability (AZ505 + Linsitinib; first compound 0.253 µM) | relative viability (AZ505 + Linsitinib; first compound 0.8 µM) | relative viability (AZ505 + Linsitinib; first compound 2.53 µM) | relative viability (AZ505 + Linsitinib; first compound 8 µM)
201T | 0.363 | 0.356 | 0.334 | 0.279 | 0.267 | 0.601 | 0.538 | 0.524 | 0.554 | 0.346 | 1.09 | 1.11 | 1.06 | 1.11 | 1.07 | 1.03 | 0.98 | 0.993 | 1.01 | 0.968
A549 |  |  |  |  |  |  |  |  |  |  |  |  |  |  |  | 0.452 | 0.503 | 0.622 | 0.565 | 0.562
A-427 | 0.547 | 0.529 | 0.498 | 0.428 | 0.401 | 0.841 | 0.645 | 0.668 | 0.436 | 0.352 | 0.928 | 0.978 | 1.03 | 0.917 | 0.997 | 1.13 | 1.08 | 1.09 | 1.11 | 1.09
ABC-1 | 0.651 | 0.48 | 0.514 | 0.514 | 0.481 | 0.57 | 0.486 | 0.416 | 0.392 | 0.282 | 0.31 | 0.281 | 0.303 | 0.313 | 0.256 | 0.636 | 0.889 | 0.935 | 0.901 | 0.697
BEN | 0.479 | 0.477 | 0.473 | 0.458 | 0.426 | 0.333 | 0.288 | 0.307 | 0.329 | 0.262 | 0.744 | 0.806 | 0.809 | 0.861 | 0.842 | 0.735 | 1.1 | 0.904 | 0.891 | 1.12
CAL-12T | 0.526 | 0.396 | 0.256 | 0.172 | 0.133 | 0.456 | 0.35 | 0.252 | 0.172 | 0.108 | 0.946 | 0.82 | 0.835 | 0.936 | 1.01 | 0.72 | 0.901 | 0.684 | 0.748 | 0.9
COR-L23 | 0.327 | 0.282 | 0.228 | 0.135 | 0.0957 | 0.634 | 0.471 | 0.543 | 0.169 | 0.144 | 0.996 | 1.1 | 0.888 | 0.925 | 0.832 | 0.684 | 0.772 | 0.749 | 0.855 | 0.692
COR-L 105 | 0.393 | 0.375 | 0.432 | 0.392 | 0.31 | 0.294 | 0.293 | 0.309 | 0.2 | 0.202 | 0.712 | 0.907 | 0.813 | 0.65 | 0.77 | 0.703 | 1.05 | 0.761 | 0.779 | 1.01
Calu-6 |  |  |  |  |  |  |  |  |  |  | 0.969 | 1.07 | 0.906 | 0.915 | 1.12 | 0.872 | 0.929 | 0.851 | 0.92 | 0.956
